Measurements from the supplement of paper PMC10307832.

Legend:
Test in all cases: relative viability (nuclei count vs DMSO), 5 days (fraction); higher = more cells survive
NCI-H661 = test system: NCI-H661
Method in brief: (§1)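 Medians of duplicate plates are given as relative viability. That measure is the nuclei count in treated wells divided by the count in vehicle wells. Counts were taken on 4× images of lung cancer cell lines in 1536-well plates, 5 days after pin-tool dosing the day after seeding with one drug alone or a fixed anchor-drug dose plus five library-drug doses (not always all listed) in √10 steps.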

NCI-H650 = test system: NCI-H650
Method in brief: as §1

A-427 = test system: A-427
Method in brief: as §1

NCI-H1944 = test system: NCI-H1944
Method in brief: as §1

LC-2-ad = test system: LC-2-ad
Method in brief: as §1

BEN = test system: BEN
Method in brief: as §1

HCC-15 = test system: HCC-15
Method in brief: as §1

NCI-H1650 = test system: NCI-H1650
Method in brief: as §1

NCI-H1915 = test system: NCI-H1915
Method in brief: as §1

NCI-H1651 = test system: NCI-H1651
Method in brief: as §1

NCI-H1792 = test system: NCI-H1792
Method in brief: as §1

201T = test system: 201T
Method in brief: as §1

NCI-H460 = conditions: first compound 0.04 µM
Method in brief: as §1

In the case of `Clc1ccc(Nc2nnc(Cc3ccncc3)c3ccccc23)cc1` [Vatalanib] + C[C@@H](Oc1cc(-c2cnn(C3CCNCC3)c2)cnc1N)c1c(Cl)ccc(F)c1Cl [Crizotinib] (partner 1 µM), the relative viability (NCI-H661; first compound 0.04 µM) is reported as 1.03, the relative viability (NCI-H661; first compound 0.4 µM) is reported as 0.986 and the relative viability (NCI-H661; first compound 1.265 µM) is reported as 0.885. It also gave a relative viability (NCI-H661; first compound 4 µM) of 0.872, a relative viability (NCI-H650; first compound 0.04 µM) of 0.726 and a relative viability (NCI-H650; first compound 0.1265 µM) of 0.627. For the same compound, the relative viability (NCI-H650; first compound 1.265 µM) was 0.641, the relative viability (NCI-H650; first compound 4 µM) was 0.606 and the relative viability (A-427; first compound 0.04 µM) was 1.03. For the same compound, the relative viability (A-427; first compound 0.1265 µM) was 0.891, the relative viability (A-427; first compound 0.4 µM) was 0.994 and the relative viability (A-427; first compound 1.265 µM) was 0.879. For the same compound, the relative viability (A-427; first compound 4 µM) was 0.948, the relative viability (NCI-H1944; first compound 0.04 µM) was 1.13 and the relative viability (NCI-H1944; first compound 0.1265 µM) was 0.986. The relative viability (NCI-H1944; first compound 0.4 µM) was 1.23, the relative viability (NCI-H1944; first compound 1.265 µM) was 1.1 and the relative viability (NCI-H1944; first compound 4 µM) was 1.05. The relative viability (LC-2-ad; first compound 0.04 µM) was 0.515, the relative viability (LC-2-ad; first compound 0.1265 µM) was 0.436 and the relative viability (LC-2-ad; first compound 1.265 µM) was 0.456. For the same compound, the relative viability (LC-2-ad; first compound 4 µM) was 0.458, the relative viability (BEN; first compound 0.04 µM) was 1.03 and the relative viability (BEN; first compound 0.1265 µM) was 0.764. For the same compound, the relative viability (BEN; first compound 0.4 µM) was 1.01, the relative viability (BEN; first compound 1.265 µM) was 0.858 and the relative viability (BEN; first compound 4 µM) was 1.01. The relative viability (HCC-15; first compound 0.04 µM) was 0.9, the relative viability (HCC-15; first compound 0.1265 µM) was 0.768 and the relative viability (HCC-15; first compound 0.4 µM) was 0.79. The relative viability (HCC-15; first compound 1.265 µM) was 0.812, the relative viability (HCC-15; first compound 4 µM) was 0.841 and the relative viability (NCI-H1650; first compound 0.04 µM) was 0.933. It also gave a relative viability (NCI-H1650; first compound 0.1265 µM) of 0.997, a relative viability (NCI-H1650; first compound 0.4 µM) of 1.06 and a relative viability (NCI-H1650; first compound 1.265 µM) of 0.92. For the same compound, the relative viability (NCI-H1650; first compound 4 µM) was 1.05, the relative viability (NCI-H1915; first compound 0.04 µM) was 0.939 and the relative viability (NCI-H1915; first compound 0.1265 µM) was 0.869. The relative viability (NCI-H1915; first compound 0.4 µM) was 0.885, the relative viability (NCI-H1915; first compound 1.265 µM) was 0.92 and the relative viability (NCI-H1915; first compound 4 µM) was 0.918. It also gave a relative viability (NCI-H1651; first compound 0.04 µM) of 0.865, a relative viability (NCI-H1651; first compound 0.1265 µM) of 0.839 and a relative viability (NCI-H1651; first compound 0.4 µM) of 0.858. The relative viability (NCI-H1651; first compound 1.265 µM) was 0.86, the relative viability (NCI-H1651; first compound 4 µM) was 0.925 and the relative viability (NCI-H1792; first compound 0.04 µM) was 0.945. For the same compound, the relative viability (NCI-H1792; first compound 0.1265 µM) was 0.972, the relative viability (NCI-H1792; first compound 0.4 µM) was 0.921 and the relative viability (NCI-H1792; first compound 1.265 µM) was 0.912. The relative viability (NCI-H1792; first compound 4 µM) was 0.98, the relative viability (201T; first compound 0.04 µM) was 1 and the relative viability (201T; first compound 0.1265 µM) was 1.07. For the same compound, the relative viability (201T; first compound 0.4 µM) was 1.03, the relative viability (201T; first compound 1.265 µM) was 0.991 and the relative viability (201T; first compound 4 µM) was 1.07. The relative viability (NCI-H460) was 0.878.
